The results in this text go back to ChEMBL document CHEMBL1201862, “PubChem BioAssay data set” (2004).

SMILES strings stand for the structures.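 Grown in 96-well plates, cells were treated for 48 hours with each compound at five concentrations. Insufficient inhibition: endpoint recorded as highest concentration tested. Abbreviation: GI50, concentration required for 50% inhibition of growth.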 The source made the active and inactive calls. Rule as the data show it: active = GI50 up to about 1.1 µM and inactive = higher.

What all share (assay): growth of human tumour cells (NCI), 48 h
Assay [1] relates to A498.
Assay [2] deals with COLO 205.
For assay [3], the system named is HCT-15.
Assay [4] concerns HOP-92.
In assay [5] the test system is HT-29.
For assay [6], the system named is K562.
Assay [7] relates to KM12.
Assay [8] deals with M14.
Assay [9] relates to NCI-H522.
Assay [10] relates to OVCAR-8.
Assay [11] relates to SF-539.
Assay [12] concerns SK-MEL-28.
For assay [13], the system named is SK-MEL-5.
For assay [14], the system named is SNB-75.
Assay [15] deals with SR.
In assay [16] the test system is SW-620.
The test system of assay [17] is DU-145.
The test system of assay [18] is MDA-MB-231.
Assay [19] deals with NCI/ADR-RES.

`Cc1cc(C)cc(NC(N)=S)c1`: the GI50 in assay [1] is > 100 µM (inactive); in assay [2], 26.7 µM (inactive); in assay [3], 17.9 µM; in assay [4], > 100 µM (inactive); in assay [5], 40.9 µM (inactive); in assay [6], > 100 µM (inactive). Also, the GI50 in [7], in [8], in assay [9], in [10], in [11] and in assay [12] was > 100 µM (inactive) in each case. For the same molecule, the GI50 is > 100 µM (inactive) in [13], > 100 µM (inactive) in [14], 33.5 µM (inactive) in assay [15] and 4.06 µM (inactive) in assay [16].

Regarding `CN1C(=O)C(O)CC1c1ccccc1F` (stereo not given), the GI50 in assay [1] was > 100 µM (inactive); in assay [2], > 100 µM (inactive); in [17], > 100 µM (inactive); in [3], > 100 µM; in assay [4] it was > 100 µM (inactive); in [5], > 100 µM (inactive). Further, the GI50 in [6], in assay [7], in assay [8], in assay [18], in assay [9] and in assay [19] was > 100 µM (inactive) in each case. For the same molecule, the GI50 in assay [10], in assay [11], in assay [12], in assay [13], in assay [14] and in [15] was > 100 µM (inactive) in each case. Also, the GI50 in assay [16] is > 100 µM (inactive).

As to `Cc1c2c(c(C)c3c1[nH]c1ccccc13)CN(C)CC2`, the GI50 in [1] is 19.5 µM (inactive); in assay [2] it was 15 µM (inactive); in assay [3] it was 15.3 µM; in assay [4] it was 16.6 µM (inactive); in [5] it was 16.7 µM (inactive); in [6], 31.3 µM (inactive). For the same molecule, the GI50 in [7] is 16.6 µM (inactive); in assay [8], 15.1 µM (inactive); in [9], 17 µM (inactive); in assay [10] it was 16.4 µM (inactive); in [11], 14.2 µM (inactive); in assay [12] it was 19.2 µM (inactive). Further, the GI50 in assay [13] is 13.3 µM (inactive); in assay [14], 13.5 µM (inactive); in [15] it was 24.8 µM (inactive); in assay [16], 15.3 µM (inactive).

Turning to `CCOC(=O)/C(=C/c1ccc(C(F)(F)F)cc1)N(CC)CC`, the GI50 in assay [1] was > 100 µM (inactive); in [2], > 100 µM (inactive); in assay [3], 40.6 µM; in assay [4], 17.5 µM (inactive); in assay [5] it was > 100 µM (inactive); in assay [6], > 100 µM (inactive). The GI50 in assay [7] was 44.4 µM (inactive); in [8], > 100 µM (inactive); in assay [9], 31.6 µM (inactive); in assay [10] it was 56 µM (inactive); in [11], > 100 µM (inactive); in assay [12], > 100 µM (inactive). For the same molecule, the GI50 in assay [13] was 32.7 µM (inactive); in [14] it was > 100 µM (inactive); in [15], > 100 µM (inactive); in assay [16] it was 84.1 µM (inactive).

In the case of `CC(C)(O)[C@@H]1CC[C@@]2(C)CCC[C@H](O)[C@H]2C1`, the GI50 in [1] is > 100 µM (inactive); in assay [2], > 100 µM (inactive); in assay [3], > 100 µM; in [4] it was > 100 µM (inactive); in [5] it was > 100 µM (inactive); in [6], > 100 µM (inactive). The GI50 in [7], in [8], in [9], in [10], in assay [11] and in assay [12] was > 100 µM (inactive) each time. The GI50 in [13], in assay [14], in assay [15] and in assay [16] was > 100 µM (inactive) throughout.

With `COc1cc(/C=C2\C(=O)N(c3cccc([N+](=O)[O-])c3)C(c3ccccc3)S2(=O)=O)cc(OC)c1OC` (stereo not given), the GI50 is > 100 µM (inactive) in assay [1]; > 100 µM (inactive) in assay [2]; > 100 µM (inactive) in assay [17]; > 100 µM in assay [3]; > 100 µM (inactive) in assay [4]; > 100 µM (inactive) in assay [5]. In addition, the GI50 in assay [6] is 49.4 µM (inactive); in assay [7], 92.7 µM (inactive); in assay [8], > 100 µM (inactive); in assay [18], > 100 µM (inactive); in assay [9], > 100 µM (inactive); in assay [19], > 100 µM (inactive). In addition, the GI50 in [10] was > 100 µM (inactive); in [12], > 100 µM (inactive); in [13] it was > 100 µM (inactive); in assay [14], > 100 µM (inactive); in assay [15], 37.2 µM (inactive); in assay [16], 94.4 µM (inactive).

As to `CC(C)(c1ccccc1)c1ccc(Oc2ccc(C#N)c(C#N)c2)cc1`, the GI50 was > 10 µM (inactive) in assay [1]; > 10 µM (inactive) in assay [2]; > 10 µM in [3]; 10.3 µM (inactive) in [4]; > 10 µM (inactive) in [5]; 15 µM (inactive) in [6]. For the same molecule, the GI50 in assay [7] was > 10 µM (inactive); in assay [8], 71.8 µM (inactive); in assay [9], 9.06 µM (inactive); in assay [10], > 10 µM (inactive); in [11], > 10 µM (inactive); in [12], > 10 µM (inactive). Further, the GI50 in assay [13] was 20.7 µM (inactive); in assay [14] it was > 10 µM (inactive); in assay [15] it was 6.41 µM (inactive); in assay [16], > 100 µM (inactive).

For the molecule `S=c1[nH]nc(Cn2c3ccc(Br)cc3c3nc4ccccc4nc32)n1C1CCCCC1`, the GI50 in assay [1] was 20.5 µM (inactive); in [17], 27.8 µM (inactive); in assay [3] it was 22 µM; in assay [5] it was 16.1 µM (inactive); in [6], 25.9 µM (inactive); in assay [7], 32.7 µM (inactive). For the same molecule, the GI50 in [8] is 29.8 µM (inactive); in assay [18] it was 36.5 µM (inactive); in assay [9] it was 21.3 µM (inactive); in assay [19] it was 27 µM (inactive); in assay [10], 22.6 µM (inactive); in [11] it was 18.6 µM (inactive). Besides, the GI50 in assay [12] is 9.44 µM (inactive); in [13], 6.87 µM (inactive); in [14] it was 52.2 µM (inactive); in [15], 8.13 µM (inactive); in [16] it was 25.3 µM (inactive).

In the case of `CC(=O)OCC1OC(N2C(=O)C(=O)c3cc(C)ccc32)C(OC(C)=O)C(OC(C)=O)C1OC(C)=O` (stereo not given), the GI50 in assay [1] was > 100 µM (inactive); in assay [2], 94.6 µM (inactive); in [3], 52.8 µM; in [4], 51.5 µM (inactive); in assay [5], 37.2 µM (inactive); in [6], > 100 µM (inactive). Besides, the GI50 in assay [7] is > 100 µM (inactive); in assay [8] it was 66.5 µM (inactive); in assay [9] it was 36.3 µM (inactive); in assay [10], 63.4 µM (inactive); in assay [11], > 100 µM (inactive); in [12], 32.5 µM (inactive). Moreover, the GI50 in assay [13] was 58.7 µM (inactive); in [14], > 100 µM (inactive); in assay [15], 15.5 µM (inactive); in assay [16], > 100 µM (inactive).

Regarding `CC1SC2(CCCCC2)N(NC(=O)CSc2nc3ccc(Cl)cc3c(=O)n2-c2ccccc2)C1=O` (stereo not given), the GI50 in assay [1] was 32.6 µM (inactive); in assay [2], 13.8 µM (inactive); in assay [17] it was 27 µM (inactive); in assay [3], 18.7 µM; in assay [4], 22.3 µM (inactive); in assay [5], 16.6 µM (inactive). The GI50 in [6] was 19.5 µM (inactive); in assay [7] it was 30.1 µM (inactive); in [8] it was 20 µM (inactive); in assay [18] it was 18.3 µM (inactive); in [9], 18.8 µM (inactive); in assay [19], 22.1 µM (inactive). Moreover, the GI50 in assay [10] is 26.1 µM (inactive); in [11] it was 17.3 µM (inactive); in assay [12], 32.6 µM (inactive); in [13] it was 14.3 µM (inactive); in [14] it was 20.7 µM (inactive); in assay [16] it was 27.9 µM (inactive).

As for `O=S(=O)(O)c1cc(O)c2c(O)c(/N=N/c3ccc(/C=C/c4ccc(/N=N/c5c(S(=O)(=O)O)cc6cc(S(=O)(=O)O)cc(O)c6c5O)cc4S(=O)(=O)O)c(S(=O)(=O)O)c3)c(S(=O)(=O)O)cc2c1`, the GI50 is > 100 µM (inactive) in [1]; > 100 µM (inactive) in assay [2]; > 100 µM in assay [3]; 95.7 µM (inactive) in assay [4]; > 100 µM (inactive) in assay [5]; > 100 µM (inactive) in [6]. Besides, the GI50 in assay [7] was 32.5 µM (inactive); in [8] it was > 100 µM (inactive); in assay [9], > 100 µM (inactive); in [10], > 100 µM (inactive); in assay [11], > 100 µM (inactive); in [12], > 100 µM (inactive). The GI50 in [13], in assay [14], in assay [15] and in [16] was > 100 µM (inactive) each time.

On to `O=C1C2C3CCC(C2C(=O)N1CO)C1C2C(=O)N(CO)C(=O)C2C31` (stereo not given), for which the GI50 was > 100 µM (inactive) in assay [1]; 40.4 µM (inactive) in assay [2]; 26.5 µM in assay [3]; > 63.1 µM (inactive) in [4]; 58.7 µM (inactive) in assay [5]; 35.2 µM (inactive) in assay [6]. Moreover, the GI50 was > 89.3 µM (inactive) in assay [7]; > 66.7 µM (inactive) in [8]; 65.9 µM (inactive) in assay [9]; 32.4 µM (inactive) in assay [10]; 43 µM (inactive) in assay [11]; > 58.9 µM (inactive) in assay [12]. The GI50 in [13] was 43.4 µM (inactive); in assay [14], 50.6 µM (inactive); in [15], 13.4 µM (inactive); in assay [16] it was 26.2 µM (inactive).
